The source of these data is patent publication US6087355A, “Cephalosporin antibiotics” (Microcide Pharmaceuticals, Inc., priority 1996, dated 2000).

What all share (assay): In vitro MIC, agar dilution
Holding throughout (type): cell-based
(In general: Agar dilution tests growth on a series of plates holding different concentrations.)

One test has as its system E. coli ATCC 25992. The following applies: for MIC: Escherichia coli, ATCC25992, read-out: minimum inhibitory concentration (MIC). In short, it runs like this:
(§1)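 Strains were spotted at roughly 10^4 cfu onto drug-containing Mueller-Hinton agar. MIC was read as the lowest inhibitory concentration after overnight incubation at 35-36 °C.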

The test system of another test is P. aeruginosa ATCC 27853. The following applies: for MIC: Pseudomonas aeruginosa, ATCC27853, read-out: minimum inhibitory concentration (MIC). In short, it runs like this:
as §1

Test [1] concerns S. aureus ATCC 13709(Meth^S). The following applies: for MIC: Staphylococcus aureus, ATCC13709, S. aureus ATCC 13709(Meth^S), read-out: minimum inhibitory concentration (MIC). The method, boiled down:
as §1

A further test deals with E. faecium A491(Amp^R). The following applies: for MIC: Enterococcus faecium, read-out: minimum inhibitory concentration (MIC). In short, it runs like this: as §1
The test system of a further test is E. faecium ATCC 35667. The following applies: for MIC: Enterococcus faecium, ATCC35667, read-out: minimum inhibitory concentration (MIC). The method, boiled down: as §1
Test [2] deals with S. aureus 76(Meth^R)(lac^+). The following applies: for MIC: Staphylococcus aureus, read-out: minimum inhibitory concentration (MIC). In short, it runs like this:
as §1

In test [3] the test system is S. aureus PC1(Meth^S)(lac^+). The following applies: for MIC: Staphylococcus aureus, read-out: minimum inhibitory concentration (MIC). The method, boiled down:
as §1

For another test, the system named is S. aureus ATCC 29213. The following applies: for MIC: Staphylococcus aureus, ATCC29213, read-out: minimum inhibitory concentration (MIC). The method, boiled down: as §1
Test [4] deals with S. aureus ATCC 33593(Meth^R). The following applies: for MIC: Staphylococcus aureus, ATCC33593, read-out: minimum inhibitory concentration (MIC). The method, boiled down: as §1
In a further test the test system is E. faecium VanA(Van^R). The following applies: for MIC: Enterococcus faecium, read-out: minimum inhibitory concentration (MIC). The method, boiled down:
as §1

In the next test the test system is E. faecalis VanB(Van^R). The following applies: for MIC: Enterococcus faecalis, read-out: minimum inhibitory concentration (MIC). In short, it runs like this: as §1
The subject of test [5] is S. aureus Spain #356(Meth^R). The following applies: for MIC: Staphylococcus aureus, read-out: minimum inhibitory concentration (MIC). The method, boiled down: as §1
The subject of the next test is E. faecalis ATCC 29212. The following applies: for MIC: Enterococcus faecalis, ATCC29212, read-out: minimum inhibitory concentration (MIC). The method, boiled down:
as §1

Test [6] has as its system S. haemolyticus 05(Meth^R). The following applies: for MIC: Staphylococcus haemolyticus, read-out: minimum inhibitory concentration (MIC). In short, it runs like this:
as §1

The test system of test [7] is S. aureus Col8A(Meth^S)(lac^-). The following applies: S. aureus Col8A(Meth^S)(lac^-); for MIC: Staphylococcus aureus, read-out: minimum inhibitory concentration (MIC). In short, it runs like this:
(§2)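 Two-fold dilutions (128 to ≤0.25 μg/mL, in duplicate) were poured into Mueller-Hinton agar. Log-phase broth cultures were spot-inoculated at about 10^4 cfu per spot and incubated 35-36°C for 16-20 hours; the MIC was the lowest concentration inhibiting growth. Col is a high-level PBP2a producer; Col 8A is its isogenic PBP2a-lacking partner.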

The test system of test [8] is S. aureus Col(Meth^R)(lac^-). The following applies: for MIC: Staphylococcus aureus, read-out: minimum inhibitory concentration (MIC). In short, it runs like this:
as §2

Counter-ions that a name gives are not always drawn.

With `NCCOCc1cnccc1SC1=C(C(=O)O)N2C(=O)[C@@H](NC(=O)/C(=N\O)c3nc(N)sc3Cl)[C@H]2SC1` [Cmpd 40, (7R)-7-[(Z)-2-(2-amino-5-chlorothiazol-4-yl)-2-(hydroxyimino)acetamido]-3-(3-(2-aminoethoxymethyl)pyrid-4-ylthio)-3-cephem-4-carboxylate, trifluoroacetic acid salt], the MIC in the test on E. coli ATCC 25992 is 8 µg/mL; with P. aeruginosa ATCC 27853, above 32 µg/mL; in test [1], 0.25 µg/mL; with E. faecium A491(Amp^R), 16 µg/mL; in the test on E. faecium ATCC 35667 it was 1 µg/mL; in [2], 2 µg/mL. The MIC in [3] was found to be 0.13 µg/mL; with S. aureus ATCC 29213, 0.25 µg/mL; in test [4], 2 µg/mL; in the test with E. faecium VanA(Van^R), 2 µg/mL; in the test on E. faecalis VanB(Van^R), 0.25 µg/mL; in test [5], 2 µg/mL. The MIC with E. faecalis ATCC 29212 stood at 0.13 µg/mL; in [6] it was 4 µg/mL; in test [7], 0.5 µg/mL; in test [8] it was 2 µg/mL.
Regarding `O=C(Cc1ccccc1)N[C@@H]1C(=O)N2C(C(=O)O)=C(Sc3snnc3CSC3CCNC3)CS[C@H]12` (stereo partly drawn) [Cmpd 6, (7R)-7-[(phenylacetyl)amino]-3-[4-(3-pyrrolidinothiomethyl)-1,2,3-thiadiazol-5-ylthio]-3-cephem-4-carboxylate, trifluoroacetic acid salt], the MIC in the test with E. coli ATCC 25992 is above 32 µg/mL; in the test with P. aeruginosa ATCC 27853, above 32 µg/mL; in test [1], at most 0.06 µg/mL; with E. faecium A491(Amp^R), above 32 µg/mL; in the test with E. faecium ATCC 35667, 2 µg/mL; in test [2], 8 µg/mL. For the same molecule, the MIC worked out at 0.5 µg/mL in test [3]; 0.25 µg/mL in the test on S. aureus ATCC 29213; 8 µg/mL in test [4]; 8 µg/mL in the test with E. faecium VanA(Van^R); 8 µg/mL with E. faecalis VanB(Van^R); 8 µg/mL in test [5]. Besides, the MIC came out at 0.5 µg/mL with E. faecalis ATCC 29212, 16 µg/mL in test [6], 0.13 µg/mL in test [7] and 2 µg/mL in test [8].
For `Nc1nc(/C(=N/O)C(=O)N[C@@H]2C(=O)N3C(C(=O)O)=C(Sc4ccncc4CSC4CCNCC4)CS[C@H]23)c(Cl)s1` [Cmpd 52, (7R)-7-[(Z)-2-(2-amino-5-chlorothiazol-4-yl)-2-(hydroxyimino)acetamido]-3-(3-(piperidine-4-ylthiomethyl)pyrid-4-ylthio)-3-cephem-4-carboxylate, trifluoroacetic acid salt], the MIC was 2 µg/mL in the test with E. coli ATCC 25992; above 32 µg/mL with P. aeruginosa ATCC 27853; 0.5 µg/mL in [1]; 4 µg/mL in the test with E. faecium A491(Amp^R); at most 0.06 µg/mL in the test with E. faecium ATCC 35667; 2 µg/mL in [2]. Also, the MIC turned out to be 0.5 µg/mL in test [3]; 0.5 µg/mL in the test with S. aureus ATCC 29213; 2 µg/mL in [4]; 1 µg/mL in the test with E. faecium VanA(Van^R); 0.13 µg/mL with E. faecalis VanB(Van^R); 2 µg/mL in [5]. Also, the MIC in the test with E. faecalis ATCC 29212 was at most 0.06 µg/mL; in test [6] it was 2 µg/mL; in test [7], 0.25 µg/mL; in test [8], 2 µg/mL.
Regarding `Nc1nc(/C(=N/O)C(=O)N[C@@H]2C(=O)N3C(C(=O)O)=C(Sc4ccncc4CSCCNC=O)CS[C@H]23)c(Cl)s1` [Cmpd 63, (7R)-7-[(Z)-2-(2-amino-5-chlorothiazol-4-yl)-2-(hydroxyimino)acetamido]-3-(3-(N-formylaminoethylthiomethyl)pyrid-4-ylthio)-3-cephem-4-carboxylate, trifluoroacetic acid salt], the MIC was 16 µg/mL in the test with E. coli ATCC 25992; above 32 µg/mL with P. aeruginosa ATCC 27853; 0.25 µg/mL in test [1]; 16 µg/mL in the test with E. faecium A491(Amp^R); 0.5 µg/mL with E. faecium ATCC 35667; 2 µg/mL in test [2]. The MIC in test [3] turned out to be 0.25 µg/mL; with S. aureus ATCC 29213, 0.25 µg/mL; in test [4], 2 µg/mL; in the test with E. faecium VanA(Van^R), 1 µg/mL; in the test with E. faecalis VanB(Van^R) it was 0.25 µg/mL; in test [5], 4 µg/mL. The MIC with E. faecalis ATCC 29212 was 0.13 µg/mL; in [6] it was 2 µg/mL; in test [7] it was 0.13 µg/mL; in [8], 2 µg/mL.
For `NCCSCc1cnccc1SC1=C(C(=O)O)N2C(=O)[C@@H](NC(=O)/C(=N\O)c3nc(N)sc3Br)[C@H]2SC1.O=C(O)C(F)(F)F` [Cmpd 21, (7R)-7-[(Z)-2-(2-amino-5-bromothiazol-4-yl)-2-(hydroxyimino)acetamido]-3-(3-aminoethylthiomethylpyrid-4-ylthio)-3-cephem-4-carboxylate, trifluoroacetic acid salt], the MIC in the test on E. coli ATCC 25992 was 32 µg/mL; with P. aeruginosa ATCC 27853, above 32 µg/mL; in [1] it was 1 µg/mL; in the test with E. faecium A491(Amp^R), 8 µg/mL; with E. faecium ATCC 35667, 0.5 µg/mL; in test [2], 1 µg/mL. Besides, the MIC in test [3] came out at 0.5 µg/mL; in the test on S. aureus ATCC 29213, 0.25 µg/mL; in [4] it was 1 µg/mL; in the test on E. faecium VanA(Van^R) it was 1 µg/mL; in the test with E. faecalis VanB(Van^R), 0.13 µg/mL; in test [5], 1 µg/mL. The MIC came out at 0.13 µg/mL in the test with E. faecalis ATCC 29212, 2 µg/mL in test [6], 0.25 µg/mL in test [7] and 1 µg/mL in test [8].
`NCC[S+]([O-])Cc1cnccc1SC1=C(C(=O)O)N2C(=O)[C@@H](NC(=O)/C(=N\O)c3nc(N)sc3Cl)[C@H]2SC1` (stereo partly drawn) [Cmpd 53, (7R)-7-[(Z)-2-(2-amino-5-chlorothiazol-4-yl)-2-(hydroxyimino)acetamido]-3-(3-aminoethylsulfinylmethylpyrid-4-ylthio)-3-cephem-4-carboxylate, trifluoroacetic acid salt]: the MIC with E. coli ATCC 25992 is 4 µg/mL; in the test on P. aeruginosa ATCC 27853 it was above 32 µg/mL; in [1], 0.25 µg/mL; in the test with E. faecium A491(Amp^R) it was 16 µg/mL; in the test on E. faecium ATCC 35667 it was 1 µg/mL; in test [2], 4 µg/mL. Also, the MIC in test [3] came out at 1 µg/mL; in the test on S. aureus ATCC 29213, 0.5 µg/mL; in test [4], 2 µg/mL; with E. faecium VanA(Van^R), 2 µg/mL; in the test with E. faecalis VanB(Van^R), 0.25 µg/mL; in [5] it was 4 µg/mL. The MIC in the test with E. faecalis ATCC 29212 worked out at 0.13 µg/mL; in test [6], 4 µg/mL; in test [7] it was 0.5 µg/mL; in test [8] it was 4 µg/mL.
`N=CNCCSCc1cnccc1SC1=C(C(=O)O)N2C(=O)[C@@H](NC(=O)/C(=N\O)c3csc(N)n3)[C@H]2SC1.O=C(O)C(F)(F)F` [Cmpd 25, (7R)-7-[(Z)-2-(aminothiazol-4-yl)-2-(hydroxyimino)acetamido]-3-(3-(N-formamidoyl)aminoethylthiomethylpyrid-4-ylthio)-3-cephem-4-carboxylate, trifluoroacetic acid salt]: the “minimum inhibitory concentration (MIC)” value in the test with E. coli ATCC 25992 was 4 µg/mL; in the test on P. aeruginosa ATCC 27853 it was above 32 µg/mL; in test [1] (S. aureus ATCC 13709(Meth^S)), 0.25 µg/mL; with E. faecium A491(Amp^R), 32 µg/mL; in the test on E. faecium ATCC 35667, 1 µg/mL; in [2], 2 µg/mL. The “minimum inhibitory concentration (MIC)” value in test [3] stood at 0.25 µg/mL; in the test with S. aureus ATCC 29213, 0.25 µg/mL; in test [4], 1 µg/mL; in the test on E. faecium VanA(Van^R) it was 2 µg/mL; in the test with E. faecalis VanB(Van^R) it was 0.13 µg/mL; in test [5] it was 2 µg/mL. The “minimum inhibitory concentration (MIC)” value stood at 0.13 µg/mL in the test with E. faecalis ATCC 29212, 2 µg/mL in test [6], 0.25 µg/mL in test [7] and 1 µg/mL in test [8].
